ChEMBL document CHEMBL1132543, “N-deacetyl-N-aminoacylthiocolchicine derivatives: synthesis and biological evaluation on MDR-positive and MDR-negative human cancer cell lines” (J Med Chem, 1999)

Tests used:
MDA-MB-231 = assay: cells; type: functional, cell-based; settings: Homo sapiens, MDA-MB-231, 72 h
Description: Anti tumor activity on human breast cancer cell line MDR-negative MDA-MB 231 after 72 hours of treatment

MCF7 = assay: Anti tumor activity on human breast cancer cell line MDR-positive MCF-7 ADRr after 72 hours of treatment; type: functional, cell-based; settings: MCF7, 72 h

SMILES	IC50 (MDA-MB-231)	IC50 (MCF7)
COc1cc2c(c(OC)c1OC)-c1ccc(SC)c(=O)cc1[C@@H](NC(=O)C(F)(F)F)CC2	1.3 nM	35 nM
COc1cc2c(c(OC)c1OC)-c1ccc(SC)c(=O)cc1[C@@H](NC(=O)CN)CC2	7.6 nM	10000 nM
COc1cc2c(c(OC)c1OC)-c1ccc(SC)c(=O)cc1[C@@H](NC(=O)[C@@H](C)N)CC2	150 nM	12000 nM
COc1cc2c(c(OC)c1OC)-c1ccc(OC)c(=O)cc1[C@@H](NC(C)=O)CC2 [COLCHICINE]	1.8 nM	–
COc1cc2c(c(OC)c1OC)-c1ccc(SC)c(=O)cc1[C@@H](NC(=O)[C@H](C)N)CC2	90 nM	10000 nM
COc1cc2c(c(OC)c1OC)-c1ccc(SC)c(=O)cc1[C@@H](NC(=O)CNC(=O)C(F)(F)F)CC2	6 nM	12000 nM

The remaining lines, values ahead:

IC50 (MDA-MB-231)	IC50 (MCF7)	SMILES
37 nM	10000 nM	COc1cc2c(c(OC)c1OC)-c1ccc(SC)c(=O)cc1[C@@H](NC(=O)[C@@H](CCSC)NC(=O)C(F)(F)F)CC2.COc1cc2c(c(OC)c1OC)-c1ccc(SC)c(=O)cc1[C@@H](NC(=O)[C@H](CCSC)NC(=O)C(F)(F)F)CC2
24 nM	1500 nM	COc1cc2c(c(OC)c1OC)-c1ccc(SC)c(=O)cc1[C@@H](NC(=O)[C@@H](NC(=O)C(F)(F)F)c1ccccc1)CC2.COc1cc2c(c(OC)c1OC)-c1ccc(SC)c(=O)cc1[C@@H](NC(=O)[C@H](NC(=O)C(F)(F)F)c1ccccc1)CC2
35 nM	20000 nM	COc1cc2c(c(OC)c1OC)-c1ccc(SC)c(=O)cc1[C@@H](NC(=O)[C@@H](N)CCSC)CC2.COc1cc2c(c(OC)c1OC)-c1ccc(SC)c(=O)cc1[C@@H](NC(=O)[C@H](N)CCSC)CC2
12 nM	2100 nM	COc1cc2c(c(OC)c1OC)-c1ccc(SC)c(=O)cc1[C@@H](NC(=O)[C@@H](C)NC(=O)C(F)(F)F)CC2.COc1cc2c(c(OC)c1OC)-c1ccc(SC)c(=O)cc1[C@@H](NC(=O)[C@H](C)NC(=O)C(F)(F)F)CC2
19 nM	800 nM	COc1cc2c(c(OC)c1OC)-c1ccc(SC)c(=O)cc1[C@@H](NC(=O)[C@@H](C)N)CC2.COc1cc2c(c(OC)c1OC)-c1ccc(SC)c(=O)cc1[C@@H](NC(=O)[C@H](C)N)CC2
3 nM	1700 nM	COc1cc2c(c(OC)c1OC)-c1ccc(SC)c(=O)cc1[C@@H](NC(=O)[C@@H](N)c1ccccc1)CC2.COc1cc2c(c(OC)c1OC)-c1ccc(SC)c(=O)cc1[C@@H](NC(=O)[C@H](N)c1ccccc1)CC2
